The results in this text go back to patent US7045515B2, “β-lactam compounds process for reproducing the same and serum cholesterol-lowering agents containing the same” (Kotobuki Pharmaceutical Co., Ltd., priority 2001, dated 2006).

One data set concerns hypercholesterolemic hamster. The data set can be described thus: Hypocholesterolemic activity in hamsters fed a 0.5%-cholesterol diet. It is filed as in vivo. To be noted: Mesocricetus auratus, po, 96 h; 10 mg/kg orally daily, dosage day 4; changed percent, negative = hypocholesterolemic action; read-out: Serum cholesterol (%). The method, then: [Hypocholesterolemic Agents Using the Hypercholesterolemic Hamster]
Hamsters were derived into groups with 3 animals per group and fed a 0.5%-cholesterol containing CE-2 diet (CLEA Japan Inc.) for 4 or 7 days. The normal dietary group were fed a standard CE-2 during the experiment. Each compound or vehicle (0.2 mL of corn oil) per 100 g body weight was orally administered daily for 4 or 7 days from the day that high-cholesterol diet was started. At 20 hr after the final administration, blood samples were collected from the abdominal aorta of non-fasted animals under anesthesia with diethylether. Serum cholesterol was measured by enzymatic method using cholesterol E-test wako (Wako Pure Chemical Industries). Activity of the test compounds is expressed as percent reduction of the test compound on the basis of comparison with rised total cholesterol treated only with no-treatment-high-cholesterol diet. The test compounds with the optical rotation value in the compounds 1–58 were evaluated as the chiral compounds.
Consider `O=C1[C@H](CC[C@H](O)c2ccc(C3OC(CO)C(O)C(O)C3O)cc2)C(c2ccc(F)cc2)N1c1ccc(F)cc1` (stereo in doubt) [Compound 49, 3-((3S)-(4-[(2S,5S,3R,4R,6R)-3,4,5-Trihydroxy-6-(hydroxymethyl)perhydro-2H-pyran-2-yl]phenyl}-3-hydroxypropyl)(4S,3R)-1,4-bis(4-fluorophenyl)azetidine-2-one], for which the change in vivo at 10 mg/kg is -55%.

Staying with this data set, now noted: Mesocricetus auratus, po, 96 h; 20 mg/kg orally daily, dosage day 4; changed percent, negative = hypocholesterolemic action; read-out: Serum cholesterol (%).
As for `CC(=O)OC[C@H]1O[C@@H](Cc2ccc([C@@H]3[C@@H](CCOc4ccc(F)cc4)C(=O)N3c3ccc(F)cc3)cc2)[C@H](OC(C)=O)[C@@H](OC(C)=O)[C@@H]1OC(C)=O` (relative stereo) [Compound 13, (3S,2R,4R,5R,6R)-2-[(4-{(4S*,3R*)-1-(4-Fluorophenyl)-3-[2-(4-fluorophenoxy)ethyl]-2-oxoazetidine-4-yl}phenyl)methyl]-4,5-diacetyloxy-6-(acetoxymethyl)perhydro-2H-pyran-3-ylacetate], the change in vivo at 20 mg/kg was -28%.
Take `O=C1[C@H](CCOc2ccc(F)cc2)[C@@H](c2ccc(OCC3O[C@H](CO)[C@@H](O)[C@H](O)[C@H]3O)cc2)N1c1ccc(F)cc1` (relative stereo) [Compound 15, (4S*,3R*)-4-(4-{[(4S,5S,2R,3R,6R)-3,4,5-Trihydroxy-6-(hydroxymethyl)perhydro-2H-pyran-2-yl]methoxy}phenyl)-1-(4-fluorophenyl)-3-[2-(4-fluorophenoxy)ethyl]azetidine-2-one]: the change in vivo at 20 mg/kg is -21%.

Still in this data set, the particulars now being: Mesocricetus auratus, po, 168 h; 3 mg/kg orally daily, dosage day 7; changed percent vs rise in total cholesterol on high-cholesterol diet, negative = hypocholesterolemic action; read-out: Serum cholesterol (%).
Regarding `O=C1[C@H](CCCc2ccc(F)cc2)[C@@H](c2ccc(C[C@@H]3O[C@H](CO)[C@@H](O)[C@H](O)[C@H]3O)cc2)N1c1ccc(F)cc1` (relative stereo) [Compound 2, (4S*,3R*)-4-(4-{[(2S,5S,3R,4R,6R)-3,4,5-Trihydroxy-6-(hydroxymethyl)perhydro-2H-pyran-2-yl]methyl}phenyl)-1-(4-fluorophenyl)-3-[3-(4-fluorophenyl)propyl]azetidine-2-one], the change in vivo at 3 mg/kg is -120%.
As to `O=C1[C@H](CC[C@H](O)c2ccc(F)cc2)[C@@H](c2ccc(C[C@@H]3O[C@H](CO)[C@@H](O)[C@H](O)[C@H]3O)cc2)N1c1ccccc1` [Compound 23, (4S,3R)-3-[(3S)-3-(4-Fluorophenyl)-3-hydroxypropyl]-4-(4-{[(2S,5S,3R,4R,6R)-3,4,5-trihydroxy-6-(hydroxymethyl)perhydro-2H-pyran-2-yl]methyl}phenyl)-1-phenylazetidine-2-one], the change in vivo at 3 mg/kg was -177%.

System in the next data set: not given
Experiment: not given
Details: not given
For `O=C1[C@H](CCCc2ccc(F)cc2)[C@@H](c2ccc(C[C@@H]3O[C@H](CO)[C@@H](O)[C@H](O)[C@H]3O)cc2)N1c1ccc(F)cc1` (relative stereo) [Compound 2, (4S*,3R*)-4-(4-{[(2S,5S,3R,4R,6R)-3,4,5-Trihydroxy-6-(hydroxymethyl)perhydro-2H-pyran-2-yl]methyl}phenyl)-1-(4-fluorophenyl)-3-[3-(4-fluorophenyl)propyl]azetidine-2-one], the melting point (as a rule, the temperature, or range, at which the solid turns liquid) fell in the range of 110 to 112 °C.
`CC(=O)OC[C@H]1O[C@@H](Cc2ccc([C@@H]3[C@@H](CCOc4ccc(F)cc4)C(=O)N3c3ccc(F)cc3)cc2)[C@H](OC(C)=O)[C@@H](OC(C)=O)[C@@H]1OC(C)=O` (relative stereo) [Compound 13, (3S,2R,4R,5R,6R)-2-[(4-{(4S*,3R*)-1-(4-Fluorophenyl)-3-[2-(4-fluorophenoxy)ethyl]-2-oxoazetidine-4-yl}phenyl)methyl]-4,5-diacetyloxy-6-(acetoxymethyl)perhydro-2H-pyran-3-ylacetate]: the melting point lay in the range of 64 to 66 °C.
The compound `O=C1[C@H](CCOc2ccc(F)cc2)[C@@H](c2ccc(OCC3O[C@H](CO)[C@@H](O)[C@H](O)[C@H]3O)cc2)N1c1ccc(F)cc1` (relative stereo) [Compound 15, (4S*,3R*)-4-(4-{[(4S,5S,2R,3R,6R)-3,4,5-Trihydroxy-6-(hydroxymethyl)perhydro-2H-pyran-2-yl]methoxy}phenyl)-1-(4-fluorophenyl)-3-[2-(4-fluorophenoxy)ethyl]azetidine-2-one] showed a melting point of 64 to 65 °C.
Turning to `O=C1[C@H](CC[C@H](O)c2ccc(C3OC(CO)C(O)C(O)C3O)cc2)C(c2ccc(F)cc2)N1c1ccc(F)cc1` (stereo in doubt) [Compound 49, 3-((3S)-(4-[(2S,5S,3R,4R,6R)-3,4,5-Trihydroxy-6-(hydroxymethyl)perhydro-2H-pyran-2-yl]phenyl}-3-hydroxypropyl)(4S,3R)-1,4-bis(4-fluorophenyl)azetidine-2-one], the melting point lay in the range of 111 to 113 °C.
In the case of `O=C1[C@H](CC[C@H](O)c2ccc(F)cc2)[C@@H](c2ccc(C[C@@H]3O[C@H](CO)[C@@H](O)[C@H](O)[C@H]3O)cc2)N1c1ccccc1` [Compound 23, (4S,3R)-3-[(3S)-3-(4-Fluorophenyl)-3-hydroxypropyl]-4-(4-{[(2S,5S,3R,4R,6R)-3,4,5-trihydroxy-6-(hydroxymethyl)perhydro-2H-pyran-2-yl]methyl}phenyl)-1-phenylazetidine-2-one], the melting point lay in the range of 104 to 106 °C.
On to `O=C(CC[C@H]1C(=O)N(c2ccccc2)[C@@H]1c1ccc(C[C@@H]2O[C@H](CO)[C@@H](O)[C@H](O)[C@H]2O)cc1)c1ccc(F)cc1` [Compound 27, (4S,3R)-4-(4-{[(2S,5S,3R,4R,6R)-3,4,5-Trihydroxy-6-(hydroxymethyl)perhydro-2H-pyran-2-yl]methyl}phenyl)-1-phenyl-3-[3-(4-fluorophenyl)-3-oxopropyl]azetidine-2-one], for which the melting point was in the range of 104 to 106 °C.
In turn, `O=C(O)c1ccc(N2C(=O)[C@H](CC[C@H](O)c3ccc(F)cc3)[C@H]2c2ccc(C[C@@H]3O[C@H](CO)[C@@H](O)[C@H](O)[C@H]3O)cc2)cc1` [Compound 29, 4-[(4S,3R)-3-[(3S)-3-(4-Fluorophenyl)-3-hydroxypropyl]-4-(4-{[(2S,5S,3R,4R,6R)-3,4,5-trihydroxy-6-(hydroxymethyl)perhydro-2H-pyran-2-yl]methyl}phenyl)-2-oxoazetidinyl]benzoic acid] returned a melting point of 148 to 150 °C.
Still for that read-out and setting: the value for `O=C(O)c1ccc(N2C(=O)[C@H](CCC(=O)c3ccc(F)cc3)[C@H]2c2ccc(C[C@@H]3O[C@H](CO)[C@@H](O)[C@H](O)[C@H]3O)cc2)cc1` [Compound 30, 4-[(4S,3R)-4-(4-{[(2S,5S,3R,4R,6R)-3,4,5-Trihydroxy-6-(hydroxymethyl)perhydro-2H-pyran-2-yl]methyl}phenyl)-3-[3-(4-fluorophenyl)-3-oxopropyl]-2-oxoazetidinyl]benzoic acid] was 102 to 104 °C.
Still for that read-out and setting: the value for `O=C(O)c1ccc(N2C(=O)[C@H](CCCc3ccc(F)cc3)[C@H]2c2ccc(C[C@@H]3O[C@H](CO)[C@@H](O)[C@H](O)[C@H]3O)cc2)cc1` [Compound 31, 4-[(4S,3R)-4-(4-{[(2S,5S,3R,4R,6R)-3,4,5-Trihydroxy-6-(hydroxymethyl)perhydro-2H-pyran-2-yl]methyl}phenyl)-3-[3-(4-fluorophenyl)propyl]-2-oxoazetidinyl]benzoic acid] was 97 to 99 °C; that for `O=C(CC[C@H]1C(=O)N(c2ccc(F)cc2)[C@@H]1c1ccc([C@@H]2O[C@H](CO)[C@@H](O)[C@H](O)[C@H]2O)cc1)c1ccc(F)cc1` [Compound 34] was 83 to 85 °C; that for `O=C1[C@H](CC[C@H](O)c2ccc(F)cc2)[C@@H](c2ccc([C@@H]3O[C@H](CO)[C@@H](O)[C@H](O)[C@H]3O)cc2)N1c1ccc(F)cc1` [Compound 35] was 81 to 83 °C.
For the compound `Cc1ccc(N2C(=O)[C@H](CC[C@H](O)c3ccc(F)cc3)[C@H]2c2ccc([C@@H]3O[C@H](CO)[C@@H](O)[C@H](O)[C@H]3O)cc2)cc1` [Compound 36], the melting point is 79 to 81 °C.
The same measure, in the same setting: the value for `O=C1[C@H](CC[C@H](O)c2ccccc2)[C@@H](c2ccc(C[C@@H]3O[C@H](CO)[C@@H](O)[C@H](O)[C@H]3O)cc2)N1c1ccccc1` [Compound 41, 3-((3S)-3-Hydroxy-3-phenylpropyl)(4S,3R)-4-(4-{[(2S,5S,3R,4R,6R)-3,4,5-trihydroxy-6-(hydroxymethyl)perhydro-2H-pyran-2-yl]methyl}phenyl)-1-phenylazetidine-2-one] was 110 to 112 °C; that for `CCOC(=O)c1ccc(N2C(=O)[C@H](CC[C@H](O)c3ccc(F)cc3)[C@H]2c2ccc(C[C@@H]3O[C@H](CO)[C@@H](O)[C@H](O)[C@H]3O)cc2)cc1` [Compound 42, 4-[3-((3S)-3-(4-Fluorophenyl)-3-hydroxypropyl](4S,3R)-4-(4-{[(2S,5S,3R,4R,6R)-3,4,5-trihydroxy-6-(hydroxymethyl)perhydro-2H-pyran-2-yl]methyl}phenyl)-2-oxoazetidinyl]benzoic acid ethyl ester] was 56 to 58 °C.
On to `Cc1ccc(N2C(=O)[C@H](CCOc3ccc(F)cc3)[C@H]2c2ccc(C[C@@H]3O[C@H](CO)[C@@H](O)[C@H](O)[C@H]3O)cc2)cc1` [Compound 43, 4-(4-{[(5S,2R,3R,4R,6R)-3,4,5-Trihydroxy-6-(hydroxymethyl)perhydro-2H-pyran-2-yl]methyl}phenyl)(4S,3R)-1-(4-methylphenyl)-3-[3-(4-fluorophenoxy)ethyl]azetidine-2-one], for which the melting point fell in the range of 96 to 98 °C.
Same read-out and setting: the value for `O=C1[C@H](CCCc2ccccc2)[C@@H](c2ccc(C[C@@H]3O[C@H](CO)[C@@H](O)[C@H](O)[C@H]3O)cc2)N1c1ccccc1` [Compound 44, 3-(3-Phenylpropyl)(4S,3R)-4-(4-{[(5S,3R,4R,6R)-3,4,5-trihydroxy-6-(hydroxymethyl)perhydro-2H-pyran-2-yl]methyl}phenyl)-1-phenylazetidine-2-one] was 84 to 86 °C.
In the case of `O=C1[C@H](CC[C@H](O)c2ccc(F)cc2)[C@@H](c2ccc(/C=C/C[C@@H]3O[C@H](CO)[C@@H](O)[C@H](O)[C@H]3O)cc2)N1c1ccc(F)cc1` [Compound 47], the melting point lay within 72 to 74 °C.
Compound `O=C1[C@H](CC[C@H](O)c2ccc(F)cc2)[C@@H](c2ccc(CCC[C@@H]3O[C@H](CO)[C@@H](O)[C@H](O)[C@H]3O)cc2)N1c1ccc(F)cc1` [Compound 48] yielded a melting point of 81 to 83 °C.
`O=C1[C@H](CC[C@H](O)c2ccc(F)cc2)[C@@H](c2ccc(CCCOC[C@@H]3O[C@H](CO)[C@@H](O)[C@H](O)[C@H]3O)cc2)N1c1ccc(F)cc1` [Compound 50] yielded a melting point of 61 to 63 °C.
Regarding `O=C1[C@H](CC[C@H](O)c2ccc(F)cc2)[C@@H](c2ccc(/C=C/COC[C@@H]3O[C@H](CO)[C@@H](O)[C@H](O)[C@H]3O)cc2)N1c1ccc(F)cc1` [Compound 51], the melting point fell in the range of 65 to 67 °C.
Still for that read-out and setting: the value for `O=C1[C@H](CC[C@H](O)c2ccc(F)cc2)[C@@H](c2ccc(/C=C/CC[C@@H]3O[C@H](CO)[C@@H](O)[C@H](O)[C@H]3O)cc2)N1c1ccc(F)cc1` [Compound 52] was 79 to 81 °C.
`O=C1[C@H](CC[C@H](O)c2ccc(F)cc2)[C@@H](c2ccc(CCCC[C@@H]3O[C@H](CO)[C@@H](O)[C@H](O)[C@H]3O)cc2)N1c1ccc(F)cc1` [Compound 53] gave a melting point of 81 to 83 °C.
For `O=C1[C@H](CC[C@H](O)c2ccc(F)cc2)[C@@H](c2ccc(/C=C/CCC[C@@H]3O[C@H](CO)[C@@H](O)[C@H](O)[C@H]3O)cc2)N1c1ccc(F)cc1` [Compound 54], the melting point fell in the range of 69 to 71 °C.
`O=C1[C@H](CC[C@H](O)c2ccc(F)cc2)[C@@H](c2ccc(CCCCC[C@@H]3O[C@H](CO)[C@@H](O)[C@H](O)[C@H]3O)cc2)N1c1ccc(F)cc1` [Compound 55]: the melting point fell in the range of 66 to 68 °C.
`O=C(O)[C@H]1O[C@@H](CCc2ccc([C@@H]3[C@@H](CC[C@H](O)c4ccc(F)cc4)C(=O)N3c3ccccc3)cc2)[C@H](O)[C@@H](O)[C@@H]1O` [Compound 58]: the melting point fell in the range of 110 to 112 °C.
